Experimental data published in ChEMBL document CHEMBL5614436, “Targeting HSP90 for Cancer Therapy: Current Progress and Emerging Prospects” (J Med Chem, 2024).
One block for each molecule: values may come before it.

Tests used:
[1] = target: [Pyruvate dehydrogenase (acetyl-transferring)] kinase isozyme 1, mitochondrial (Homo sapiens, UniProt Q15118); assay: Inhibition of PDHK1 (unknown origin)
[2] = target: T1, Heat shock protein HSP 90-alpha (Homo sapiens, UniProt P07900); assay: Inhibition of HSP90alpha (unknown origin)
Endoplasmin = Endoplasmin (Homo sapiens, UniProt P14625); assay: Inhibition of recombinant GRP94 (unknown origin)
[3] = target: T1, Heat shock protein HSP 90-alpha; assay: Binding affinity to HSP90alpha (unknown origin) assessed as dissociation constant by fluorescence polarization assay
[4] = Inhibition of HSP90 (unknown origin) by AlphaScreen assay; set-up: species or system Homo sapiens
[5] = target: Heat shock protein HSP 90-beta (Homo sapiens, UniProt P08238); assay: Binding affinity to HSP90beta (unknown origin) assessed as dissociation constant by fluorescence polarization assay
[6] = target: Serine/threonine-protein kinase B-raf (Homo sapiens, UniProt P15056, V600E); assay: Inhibition of B-Raf V600E mutant (unknown origin)
[7] = target: Serine/threonine-protein kinase B-raf (Homo sapiens, UniProt P15056); assay: Inhibition of B-Raf (unknown origin)
[8] = target: T1, Heat shock protein HSP 90-alpha; assay: Binding affinity to recombinant HSP90alpha (unknown origin) assessed as dissociation constant measured for 24 hrs by fluorescence polarization assay
[9] = Inhibition of DNA topoisomerase 2 (unknown origin); set-up: species or system Homo sapiens
Tubulin = assay: Inhibition of tubulin polymerization (unknown origin); type: protein-complex assay, Homo sapiens

Heat shock protein HSP 90-beta, sequence (P08238 whole entry): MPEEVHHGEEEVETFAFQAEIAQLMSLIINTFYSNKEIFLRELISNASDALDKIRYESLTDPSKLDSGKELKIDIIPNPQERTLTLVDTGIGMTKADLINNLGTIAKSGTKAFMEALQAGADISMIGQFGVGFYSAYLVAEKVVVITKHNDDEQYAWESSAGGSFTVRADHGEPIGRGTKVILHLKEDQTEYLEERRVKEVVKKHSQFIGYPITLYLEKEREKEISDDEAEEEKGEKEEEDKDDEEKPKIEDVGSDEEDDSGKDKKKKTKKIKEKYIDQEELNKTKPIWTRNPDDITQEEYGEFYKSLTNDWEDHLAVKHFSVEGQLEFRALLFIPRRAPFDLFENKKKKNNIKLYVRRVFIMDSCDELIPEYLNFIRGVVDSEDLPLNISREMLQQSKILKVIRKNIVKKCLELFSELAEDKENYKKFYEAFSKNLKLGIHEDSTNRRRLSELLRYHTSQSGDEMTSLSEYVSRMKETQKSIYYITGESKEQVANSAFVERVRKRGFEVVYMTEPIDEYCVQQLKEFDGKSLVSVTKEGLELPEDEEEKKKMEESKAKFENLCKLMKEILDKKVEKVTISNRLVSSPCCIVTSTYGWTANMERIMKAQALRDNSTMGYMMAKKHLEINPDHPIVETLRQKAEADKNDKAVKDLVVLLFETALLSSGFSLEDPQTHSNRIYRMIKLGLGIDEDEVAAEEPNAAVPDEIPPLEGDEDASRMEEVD
[Pyruvate dehydrogenase (acetyl-transferring)] kinase isozyme 1, mitochondrial, sequence (Q15118 whole entry): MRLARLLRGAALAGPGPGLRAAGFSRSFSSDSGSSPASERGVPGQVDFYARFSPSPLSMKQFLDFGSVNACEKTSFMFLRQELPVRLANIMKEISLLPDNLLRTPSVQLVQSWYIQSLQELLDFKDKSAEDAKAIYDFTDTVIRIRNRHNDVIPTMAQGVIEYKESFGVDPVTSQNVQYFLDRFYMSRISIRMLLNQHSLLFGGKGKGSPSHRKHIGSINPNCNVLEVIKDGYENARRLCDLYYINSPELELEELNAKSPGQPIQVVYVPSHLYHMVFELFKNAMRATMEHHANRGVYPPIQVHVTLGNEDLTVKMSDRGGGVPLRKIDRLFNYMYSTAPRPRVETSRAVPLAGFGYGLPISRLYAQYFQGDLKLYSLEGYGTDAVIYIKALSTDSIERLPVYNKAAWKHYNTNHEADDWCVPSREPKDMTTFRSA
Serine/threonine-protein kinase B-raf (Homo sapiens, UniProt P15056), sequence (P15056 whole entry): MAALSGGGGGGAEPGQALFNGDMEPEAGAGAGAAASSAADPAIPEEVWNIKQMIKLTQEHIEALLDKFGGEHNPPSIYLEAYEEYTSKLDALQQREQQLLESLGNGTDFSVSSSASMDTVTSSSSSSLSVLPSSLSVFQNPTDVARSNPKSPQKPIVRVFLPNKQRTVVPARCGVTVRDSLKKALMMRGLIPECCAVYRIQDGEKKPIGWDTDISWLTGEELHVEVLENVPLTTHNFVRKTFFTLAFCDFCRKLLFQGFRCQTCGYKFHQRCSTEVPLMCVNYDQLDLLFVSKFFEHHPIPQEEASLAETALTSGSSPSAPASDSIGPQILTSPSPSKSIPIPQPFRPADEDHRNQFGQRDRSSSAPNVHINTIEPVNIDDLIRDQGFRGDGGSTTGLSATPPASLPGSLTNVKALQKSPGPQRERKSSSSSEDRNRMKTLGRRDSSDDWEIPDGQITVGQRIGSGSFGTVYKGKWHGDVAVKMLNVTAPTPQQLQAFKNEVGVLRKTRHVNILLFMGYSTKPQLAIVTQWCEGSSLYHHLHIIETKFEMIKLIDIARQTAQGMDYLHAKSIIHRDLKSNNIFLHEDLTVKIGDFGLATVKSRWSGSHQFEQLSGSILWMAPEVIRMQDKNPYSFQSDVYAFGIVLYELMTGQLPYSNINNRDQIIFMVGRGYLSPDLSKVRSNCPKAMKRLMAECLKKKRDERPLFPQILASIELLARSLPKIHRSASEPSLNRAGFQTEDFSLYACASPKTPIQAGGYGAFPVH
Serine/threonine-protein kinase B-raf (Homo sapiens, UniProt P15056, V600E), sequence (P15056 2-766 V600E limits assumed): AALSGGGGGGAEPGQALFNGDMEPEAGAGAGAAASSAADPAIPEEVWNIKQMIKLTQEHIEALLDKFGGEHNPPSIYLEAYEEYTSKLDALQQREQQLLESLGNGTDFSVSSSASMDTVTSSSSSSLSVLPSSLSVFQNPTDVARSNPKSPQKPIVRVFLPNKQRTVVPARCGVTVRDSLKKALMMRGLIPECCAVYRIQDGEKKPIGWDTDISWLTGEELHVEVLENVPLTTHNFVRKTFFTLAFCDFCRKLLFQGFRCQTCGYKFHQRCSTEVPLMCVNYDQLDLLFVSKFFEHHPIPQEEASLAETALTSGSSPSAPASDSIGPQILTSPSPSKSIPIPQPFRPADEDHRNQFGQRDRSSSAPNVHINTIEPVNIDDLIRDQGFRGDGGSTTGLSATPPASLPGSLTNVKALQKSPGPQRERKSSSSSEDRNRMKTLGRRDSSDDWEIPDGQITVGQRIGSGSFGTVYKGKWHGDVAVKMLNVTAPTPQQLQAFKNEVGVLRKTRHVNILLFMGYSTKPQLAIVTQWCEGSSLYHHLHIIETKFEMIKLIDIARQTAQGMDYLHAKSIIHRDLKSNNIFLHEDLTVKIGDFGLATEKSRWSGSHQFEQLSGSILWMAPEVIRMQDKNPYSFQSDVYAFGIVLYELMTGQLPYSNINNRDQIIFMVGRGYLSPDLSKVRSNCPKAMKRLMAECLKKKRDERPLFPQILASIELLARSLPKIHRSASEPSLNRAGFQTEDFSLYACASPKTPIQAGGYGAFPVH
Endoplasmin, sequence (P14625 whole entry): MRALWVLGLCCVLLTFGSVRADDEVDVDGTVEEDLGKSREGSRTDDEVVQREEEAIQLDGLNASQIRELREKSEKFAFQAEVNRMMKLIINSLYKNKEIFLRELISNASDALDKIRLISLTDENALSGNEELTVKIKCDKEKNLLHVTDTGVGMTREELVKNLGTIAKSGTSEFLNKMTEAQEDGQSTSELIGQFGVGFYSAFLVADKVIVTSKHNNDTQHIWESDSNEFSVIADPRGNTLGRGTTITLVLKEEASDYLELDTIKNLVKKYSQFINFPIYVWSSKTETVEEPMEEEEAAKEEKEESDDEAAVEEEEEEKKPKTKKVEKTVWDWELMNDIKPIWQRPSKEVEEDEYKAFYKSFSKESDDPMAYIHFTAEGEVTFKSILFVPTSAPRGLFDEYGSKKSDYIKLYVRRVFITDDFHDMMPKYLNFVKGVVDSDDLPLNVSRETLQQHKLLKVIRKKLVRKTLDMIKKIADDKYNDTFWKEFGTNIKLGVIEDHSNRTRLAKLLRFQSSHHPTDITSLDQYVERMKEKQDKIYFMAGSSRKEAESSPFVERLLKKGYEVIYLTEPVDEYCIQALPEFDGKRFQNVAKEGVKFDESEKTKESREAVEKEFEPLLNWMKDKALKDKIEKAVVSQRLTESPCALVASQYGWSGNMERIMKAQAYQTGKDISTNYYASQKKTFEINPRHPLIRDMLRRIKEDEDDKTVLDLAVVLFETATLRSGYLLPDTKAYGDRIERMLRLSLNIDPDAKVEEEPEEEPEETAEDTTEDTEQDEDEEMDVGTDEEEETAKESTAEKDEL

SMILES: CCOc1ccccc1Cn1ccnc1CCc1c(Cl)c(O)cc(O)c1C(=O)OC
IC50 [2]: 8100 nM
IC50 (Endoplasmin): 200 nM

SMILES: N#Cc1c(N)nc2sc(C(N)=O)c(N)c2c1-c1ccc(Cl)cc1
IC50 [6]: 2500 nM
IC50 [7]: 1500 nM

SMILES: COc1ccc(-c2c(C#N)c(N)nc3sc(C(N)=O)c(N)c23)cc1OC
IC50 [6]: 9100 nM
IC50 [7]: 28900 nM

SMILES: CCOC(=O)c1c(O)cc(O)c(Cl)c1CC(=O)Nc1cc(O)c(OC)cc1O
Kd [8]: 870 nM
Kd [3]: 870 nM

SMILES: CC1(C)CC(=O)C=C(Nc2c(N)[nH]c(=O)[nH]c2=O)C1
IC50 [4]: 1780 nM
IC50 [9]: 4480 nM

SMILES: CC(C)c1cc(C(=O)N2Cc3ccccc3C2)c(O)c2ccoc12
Kd [5]: 270 nM
Kd [3]: > 100000 nM

SMILES: CN(C)c1ccc(/C=C2\S/C(=N/c3ccccc3Cl)NC2=O)cc1
IC50 (Tubulin): 16700 nM
IC50 [4]: 5200 nM

SMILES: CC(C)c1cc(C(=O)N2Cc3ccc(CN4CCN(C)CC4)cc3C2)c(O)cc1O [ONALESPIB]
Kd [5]: 9000 nM

Now from value to molecule:

IC50 [1]: 10 nM
SMILES: COc1ccc(CN2CCC(NC(=O)c3noc(-c4cc(Cl)c(O)cc4O)c3-c3ccc(OC)cc3)CC2)cc1

IC50 [1]: 600 nM
SMILES: COc1ccc(-c2c(/C=C/C(=O)N3CCN(c4ccccc4OC)CC3)noc2-c2cc(Cl)c(O)cc2O)cc1

Kd [3]: 5520 nM
SMILES: Cc1c(C)c(S(=O)(=O)Nc2ccc(Nc3ccnc(N4CCNCC4)n3)cc2)c(C)c2c1OC(C)(C)C2

IC50 [4]: 69 nM
SMILES: CC(C)c1cc(C(=O)N2CCc3c(sc4nc(-c5ccc(NC(=O)Nc6ccc(F)c(Cl)c6)cc5)nc(N5CCOCC5)c34)C2)c(O)cc1O

Kd [5]: > 100000 nM
Kd [3]: 340 nM
SMILES: Cc1ccc(Sc2cc(C(=O)N3Cc4ccc(OCCC[N+](C)(C)C)cc4C3)ccc2O)cc1C
